Test results reported in patent publication US6825172B2, “3-descladinosyl-6-O-carbamoyl and 6-O-carbonoyl macrolide antibacterial agents” (Janssen Pharmaceutica, NV, priority 2002, dated 2004).
In brackets after ≈: the same amount, converted by molar mass. Like-named read-outs stand apart in the source and are kept apart here.

Experiments:
Experiment in all cases: MIC, microdilution broth method (NCCLS)
Assay type in all cases: cell-based
S. pneumoniae ATCC49619 = conditions: Streptococcus pneumoniae, read-out: MIC Values, D: S. pneumoniae ATCC49619
Experimental: (§1) Minimal inhibitory concentration (MIC) has been an indicator of in vitro antibacterial activity widely used in the art. The in vitro antimicrobial activity of the compounds was determined by the microdilution broth method following the test method from the National Committee for Clinical Laboratory Standards (NCCLS). This method is described in the NCCLS Document M7-A4, Vol.17, No.2, “Methods for Dilution Antimicrobial Susceptibility Test for Bacteria that Grow Aerobically—Fourth Edition”, which is incorporated herein by reference.
(§2) In this method two-fold serial dilutions of drug in cation adjusted Mueller-Hinton broth are added to wells in microdilution trays. The test organisms are prepared by adjusting the turbidity of actively growing broth cultures so that the final concentration of test organism after it is added to the wells is approximately 5×10^4 CFU/well.
(§3) Following inoculation of the microdilution trays, the trays are incubated at 35 °C for 16-20 hours and then read. […] The amount of growth in the wells containing the test compound is compared with the amount of growth in the growth-control wells (no test compound) used in each tray. As set forth in Table 1, compounds of the present invention were tested against a variety of Gram positive and Gram negative pathogenic bacteria resulting in a range of activities depending on the organism tested.

S. aureus ATCC29213 = conditions: Staphylococcus aureus, read-out: MIC Values, B: S. aureus ATCC29213
Experimental: as §1, §2, §3

E. faecalis ATCC29212 = conditions: Enterococcus faecalis, read-out: MIC Values, C: E. faecalis ATCC29212
Experimental: as §1, §2, §3

[1] = Table 1, 6-Carbamoyl-3-Acyl Macrolide Derivatives
[2] = Table 3, 6-Carbonate Macrolide Derivatives
[3] = Table 2, 3,6-Dicarbamoyl Macrolide Derivatives

| Structure (SMILES) | MIC (S. pneumoniae ATCC49619; [1]) [µg/mL] | MIC (S. aureus ATCC29213; [1]) [µg/mL] | MIC (E. faecalis ATCC29212; [1]) [µg/mL] | MIC (S. pneumoniae ATCC49619; [2]) [µg/mL] | MIC (S. aureus ATCC29213; [2]) [µg/mL] | MIC (E. faecalis ATCC29212; [2]) [µg/mL] | further results |
| --- | --- | --- | --- | --- | --- | --- | --- |
| CC[C@H]1OC(=O)[C@H](C)[C@@H](OC(=O)C(C)C)[C@H](C)[C@@H](O[C@@H]2O[C@H](C)C[C@H](N(C)C)[C@H]2OC(C)=O)[C@](C)(OC(=O)NC/C=C/c2ccc(-n3cccn3)cc2)C[C@@H](C)C(=O)[C@H](C)[C@H]2NC(=O)O[C@@]21C [Compound 48] | 0.06 (≈ 0.064 µM) | 1 (≈ 1.07 µM) | 0.5 (≈ 0.533 µM) |  |  |  |  |
| CC[C@H]1OC(=O)[C@H](C)[C@@H](OC(=O)C(C)C)[C@H](C)[C@@H](O[C@@H]2O[C@H](C)C[C@H](N(C)C)[C@H]2O)[C@](C)(OC(=O)NC/C=C/C=C/c2cnc(C(C)C)nc2)C[C@@H](C)C(=O)[C@H](C)[C@H]2NC(=O)O[C@@]21C [Compound 44] | 0.25 (≈ 0.278 µM) | 2 (≈ 2.22 µM) | 2 (≈ 2.22 µM) |  |  |  |  |
| CC[C@H]1OC(=O)[C@H](C)[C@@H](OC(=O)Cc2cccnc2)[C@H](C)[C@@H](O[C@@H]2O[C@H](C)C[C@H](N(C)C)[C@H]2O)[C@](C)(OC(=O)NC/C=C/c2cnc(C(C)(C)C)nc2)C[C@@H](C)C(=O)[C@H](C)[C@H]2NC(=O)O[C@@]21C [Compound 42] | 0.06 (≈ 0.064 µM) | 1 (≈ 1.07 µM) | 0.5 (≈ 0.534 µM) |  |  |  |  |
| CC[C@H]1OC(=O)[C@H](C)[C@@H](OC(=O)N(CC)CC)[C@H](C)[C@@H](O[C@@H]2O[C@H](C)C[C@H](N(C)C)[C@H]2O)[C@](C)(OC(=O)NC/C=C/c2ccc(-c3cccnn3)cc2)C[C@@H](C)C(=O)[C@H](C)[C@H]2NC(=O)O[C@@]21C [Compound 71] |  |  |  |  |  |  | MIC (S. pneumoniae ATCC49619; [3]): 0.06 µg/mL (≈ 0.064 µM); MIC (S. aureus ATCC29213; [3]): 1 µg/mL (≈ 1.07 µM); MIC (E. faecalis ATCC29212; [3]): 1 µg/mL (≈ 1.07 µM) |
| CC[C@H]1OC(=O)[C@H](C)[C@@H](OC(=O)N(CC)CC)[C@H](C)[C@@H](O[C@@H]2O[C@H](C)C[C@H](N(C)C)[C@H]2O)[C@](C)(OC(=O)NC/C=C/c2ccc(-n3cccn3)cc2)C[C@@H](C)C(=O)[C@H](C)[C@H]2NC(=O)O[C@@]21C [Compound 70] |  |  |  |  |  |  | MIC (S. pneumoniae ATCC49619; [3]): 0.06 µg/mL (≈ 0.0649 µM); MIC (S. aureus ATCC29213; [3]): 1 µg/mL (≈ 1.08 µM); MIC (E. faecalis ATCC29212; [3]): 0.5 µg/mL (≈ 0.54 µM) |
| CC[C@H]1OC(=O)[C@H](C)[C@@H](OC(=O)C(C)C)[C@H](C)[C@@H](O[C@@H]2O[C@H](C)C[C@H](N(C)C)[C@H]2O)[C@](C)(OC(=O)NC/C=C/c2ccc(-c3cnccn3)cc2)C[C@@H](C)C(=O)[C@H](C)[C@H]2NC(=O)O[C@@]21C [Compound 45] | 0.06 (≈ 0.0661 µM) | 0.5 (≈ 0.551 µM) | 0.5 (≈ 0.551 µM) |  |  |  |  |
| CC[C@H]1OC(=O)[C@H](C)[C@@H](OC(=O)Cc2cccnc2)[C@H](C)[C@@H](O[C@@H]2O[C@H](C)C[C@H](N(C)C)[C@H]2O)[C@](C)(OC(=O)OC/C=C/c2ccc(-c3cnccn3)cc2)C[C@@H](C)C(=O)[C@H](C)[C@H]2NC(=O)O[C@@]21C [Compound 77] |  |  |  | 0.06 (≈ 0.0626 µM) | 1 (≈ 1.04 µM) | 0.5 (≈ 0.522 µM) |  |

Continued, in another order:

| MIC (S. pneumoniae ATCC49619; [1]) [µg/mL] | MIC (S. aureus ATCC29213; [1]) [µg/mL] | MIC (E. faecalis ATCC29212; [1]) [µg/mL] | MIC (S. pneumoniae ATCC49619; [2]) [µg/mL] | MIC (S. aureus ATCC29213; [2]) [µg/mL] | MIC (E. faecalis ATCC29212; [2]) [µg/mL] | Structure (SMILES) | further results |
| --- | --- | --- | --- | --- | --- | --- | --- |
|  |  |  | 0.06 (≈ 0.064 µM) | 1 (≈ 1.07 µM) | 0.5 (≈ 0.533 µM) | CC[C@H]1OC(=O)[C@H](C)[C@@H](OC(=O)N(CC)CC)[C@H](C)[C@@H](O[C@@H]2O[C@H](C)C[C@H](N(C)C)[C@H]2O)[C@](C)(OC(=O)OC/C=C/c2ccc(-c3cccnn3)cc2)C[C@@H](C)C(=O)[C@H](C)[C@H]2NC(=O)O[C@@]21C [Compound 83, Carbonic acid, (3aS,4R,7R,8S,9S,10R,11R,13R,15R,15aR)-8-[[(diethylamino)carbonyl]oxy]-4-ethyltetradecahydro-3a,7,9,11,13,15-hexamethyl-2,6,14-trioxo-10-[[3,4,6-trideoxy-3-(dimethylamino)-β-D-xylo-hexopyranosyl]oxy]-2H-oxacyclotetradecino[4,3-d]oxazol-11-yl(2E)-3-[4-(3-pyridazinyl)phenyl]-2-propenyl ester] |  |
|  |  |  | 0.06 (≈ 0.0644 µM) | 1 (≈ 1.07 µM) | 0.5 (≈ 0.537 µM) | CC[C@H]1OC(=O)[C@H](C)[C@@H](OC(=O)Cc2cccnc2)[C@H](C)[C@@H](O[C@@H]2O[C@H](C)C[C@H](N(C)C)[C@H]2O)[C@](C)(OC(=O)OC/C=C/c2cnc3ccccc3c2)C[C@@H](C)C(=O)[C@H](C)[C@H]2NC(=O)O[C@@]21C [Compound 80] |  |
|  |  |  | 0.03 (≈ 0.032 µM) | 0.5 (≈ 0.533 µM) | 0.5 (≈ 0.533 µM) | CC[C@H]1OC(=O)[C@H](C)[C@@H](OC(=O)N(CC)CC)[C@H](C)[C@@H](O[C@@H]2O[C@H](C)C[C@H](N(C)C)[C@H]2O)[C@](C)(OC(=O)OC/C=C/c2ccc(-c3cnccn3)cc2)C[C@@H](C)C(=O)[C@H](C)[C@H]2NC(=O)O[C@@]21C [Compound 85] |  |
|  |  |  | 0.06 (≈ 0.068 µM) | 1 (≈ 1.13 µM) | 0.5 (≈ 0.567 µM) | CC[C@H]1OC(=O)[C@H](C)[C@@H](OC(=O)C(C)C)[C@H](C)[C@@H](O[C@@H]2O[C@H](C)C[C@H](N(C)C)[C@H]2O)[C@](C)(OC(=O)OC/C=C/c2cnc3ccccc3c2)C[C@@H](C)C(=O)[C@H](C)[C@H]2NC(=O)O[C@@]21C [Compound 86] |  |
